Reference: ChEMBL document CHEMBL1201862, “PubChem BioAssay data set” (2004)
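Assay format: 96-well plates, 48-hour exposure. GI50 is the concentration that inhibits growth by half.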 The source made the active and inactive calls. Rule as the data show it: active = GI50 up to about 1.1 µM and inactive = higher.

Experiments:
Experiment in all cases: NCI tumour cell line growth inhibition, 48 h
[1] = test system: NCI-H226
[2] = test system: Malme-3M
[3] = test system: TK-10
[4] = test system: MOLT-4
[5] = test system: A549
[6] = test system: SW-620
[7] = test system: HOP-92
[8] = test system: CAKI-1
[9] = test system: SK-MEL-28
[10] = test system: OVCAR-8
[11] = test system: SNB-19
[12] = test system: NCI-H460
[13] = test system: HT-29
[14] = test system: SF-268
[15] = test system: EKVX
[16] = test system: SN12C
[17] = test system: NCI-H522
[18] = test system: OVCAR-3

Measured: GI50

CC1CCN(c2cc(-c3cc4ccccc4o3)oc(=O)c2C#N)CC1
inactive: [1] > 100 µM | [2] > 100 µM | [3] > 100 µM | [4] > 100 µM | [5] > 100 µM | [6] > 100 µM | [7] 5.9 µM | [8] 19.9 µM | [9] > 100 µM | [10] > 100 µM | [11] > 100 µM | [12] > 100 µM | [13] > 100 µM | [14] > 100 µM | [15] > 100 µM | [16] > 100 µM

N#Cc1ccc([N+](=O)[O-])cc1NC(N)=S
inactive: [2] > 100 µM | [17] > 100 µM | [4] > 100 µM | [5] > 100 µM | [6] > 100 µM | [7] > 100 µM | [8] > 100 µM | [9] > 100 µM | [18] > 100 µM | [10] > 100 µM | [11] > 100 µM | [13] > 100 µM | [14] > 100 µM | [15] > 100 µM | [16] > 100 µM

CCC1N2CCCCC2[C@@H]2c3[nH]c4ccccc4c3CCN12 (stereo partly specified)
inactive: [2] > 100 µM | [17] > 100 µM | [3] > 100 µM | [4] > 100 µM | [5] > 100 µM | [6] > 100 µM | [7] > 100 µM | [8] > 100 µM | [9] > 100 µM | [18] > 100 µM | [10] > 100 µM | [11] > 100 µM | [12] > 100 µM | [13] > 100 µM | [14] > 100 µM | [15] > 100 µM | [16] > 100 µM

Cc1cccc(NC(=O)C(=O)C(C(=O)c2ccccc2F)C2OC(=O)c3ccccc32)c1Cl (stereo unspecified)
inactive: [1] 32.4 µM | [17] 22.4 µM | [3] 63 µM | [4] 30.3 µM | [5] 36.4 µM | [6] 42.5 µM | [7] 52.7 µM | [8] 61.4 µM | [9] 35.1 µM | [10] 20.1 µM | [11] 31.1 µM | [12] 33.7 µM | [13] 31.5 µM | [14] 21.4 µM | [15] 37.9 µM | [16] 36.7 µM

CC/C=C\C/C=C\C/C=C\CCCCCCCC(=O)OCC
inactive: [1] > 100 µM | [2] > 100 µM | [3] > 100 µM | [4] 87.1 µM | [5] > 100 µM | [6] > 100 µM | [7] > 100 µM | [8] > 100 µM | [9] > 100 µM | [18] > 100 µM | [10] > 100 µM | [13] > 100 µM | [14] > 100 µM | [15] > 100 µM | [16] > 100 µM

O=C1NCCCC12CCCNC2=O
inactive: [1] > 100 µM | [2] > 100 µM | [17] > 100 µM | [4] > 100 µM | [5] > 100 µM | [6] > 100 µM | [9] > 100 µM | [18] > 100 µM | [10] > 100 µM | [11] > 100 µM | [12] > 100 µM | [13] > 100 µM | [14] > 100 µM | [15] > 100 µM | [16] > 100 µM

c1ccc(N2CCN(CCCN3CCc4c([nH]c5ccccc45)C3c3cccnc3)CC2)cc1 (stereo unspecified)
inactive: [1] > 100 µM | [2] > 46.9 µM | [17] 86.9 µM | [3] 23.7 µM | [4] 30.4 µM | [5] > 100 µM | [6] > 100 µM | [7] > 100 µM | [8] > 100 µM | [9] 61.9 µM | [18] > 49.8 µM | [10] > 100 µM | [11] > 100 µM | [12] 48.3 µM | [13] 22.9 µM | [15] > 100 µM | [16] > 54.6 µM

CC(=O)OCc1nnn2c1C(OC(C)=O)CC2 (stereo unspecified)
inactive: [1] > 100 µM | [2] > 100 µM | [17] > 100 µM | [3] > 100 µM | [4] > 100 µM | [5] > 100 µM | [6] > 100 µM | [7] > 100 µM | [8] > 100 µM | [9] > 100 µM | [18] > 100 µM | [10] > 100 µM | [11] > 100 µM | [12] > 100 µM | [13] > 100 µM | [15] > 100 µM | [16] > 100 µM

CCOC(=O)Nc1ccc(S(=O)(=O)OC)cc1.CCOC(=O)Nc1ccc(S(=O)(=O)OC)cc1.Cc1cn(C2CC(O)C(CO)O2)c(=O)[nH]c1=O
inactive: [1] > 100 µM | [2] > 100 µM | [3] > 100 µM | [4] > 100 µM | [5] > 100 µM | [6] 19.4 µM | [7] > 100 µM | [8] > 100 µM | [9] > 100 µM | [18] > 100 µM | [10] > 100 µM | [11] > 100 µM | [12] > 100 µM | [13] 54.8 µM | [14] > 100 µM | [15] > 100 µM | [16] > 100 µM

S=P1(Oc2ccccc2)NNP2(=NP(N3CC3)(N3CC3)=NP(N3CC3)(N3CC3)=N2)NN1 (stereo unspecified)
inactive: [1] > 100 µM | [2] > 100 µM | [17] > 100 µM | [3] > 100 µM | [4] 19.6 µM | [5] > 100 µM | [6] > 100 µM | [8] > 100 µM | [9] > 100 µM | [18] > 100 µM | [10] > 100 µM | [11] > 100 µM | [12] 37.6 µM | [13] > 100 µM | [14] 78.3 µM | [15] > 100 µM | [16] 84.1 µM

C/C(=N\NC(=S)Nc1ccc(C(=O)O)cc1)c1ccccn1
inactive: [1] 18.2 µM | [2] 15.5 µM | [3] 30.6 µM | [4] 33.3 µM | [5] 39.1 µM | [6] 19.2 µM | [7] 43.6 µM | [8] 29.5 µM | [9] 44 µM | [18] 13.7 µM | [10] 16 µM | [12] 21.6 µM | [13] 34.7 µM | [14] 49.9 µM | [15] 27.9 µM | [16] 19.7 µM

CCOc1cccc2[s+]snc12
inactive: [1] > 100 µM | [2] > 100 µM | [17] 27.8 µM | [3] > 100 µM | [4] 78.2 µM | [5] > 100 µM | [6] > 100 µM | [8] > 100 µM | [9] > 100 µM | [18] 30.3 µM | [10] 54.3 µM | [11] > 100 µM | [12] > 100 µM | [13] > 100 µM | [14] 98.4 µM | [15] > 100 µM | [16] > 100 µM

CC(C)(C)c1cc(Cc2ccc(S(C)(=O)=O)cc2)c(O)c(C(C)(C)C)c1
inactive: [2] 18.1 µM | [17] 12.1 µM | [3] 17.9 µM | [4] 12.3 µM | [5] 11.7 µM | [6] 17.1 µM | [8] 16.2 µM | [9] 18.2 µM | [10] 14.7 µM | [11] 15.5 µM | [12] 16.8 µM | [13] 14.7 µM | [14] 13.2 µM | [15] 15.1 µM | [16] 15.3 µM

CC(C)COC(=O)N1N=NC2C3CC(=O)C(O3)C21 (stereo unspecified)
inactive: [2] > 100 µM | [17] > 100 µM | [3] 22.9 µM | [4] > 100 µM | [5] > 100 µM | [6] > 100 µM | [7] > 100 µM | [8] > 100 µM | [9] > 100 µM | [18] > 100 µM | [10] > 100 µM | [11] > 100 µM | [12] > 100 µM | [13] > 100 µM | [14] > 100 µM | [15] > 100 µM | [16] > 100 µM

CC(=O)Nc1ccc(C(=O)N2N=C(C)/C(=C/c3cccc(O)c3)C2=O)cc1
inactive: [1] > 100 µM | [2] > 100 µM | [17] > 100 µM | [3] > 100 µM | [4] > 100 µM | [5] > 100 µM | [6] > 100 µM | [8] > 100 µM | [9] > 100 µM | [18] > 100 µM | [10] > 100 µM | [11] > 100 µM | [12] > 100 µM | [13] > 100 µM | [14] > 100 µM | [15] > 100 µM | [16] > 100 µM

COC(=O)C1=CC2OC1(C)CCC2=O (stereo unspecified)
inactive: [1] > 100 µM | [2] 71.4 µM | [17] 48.1 µM | [3] > 100 µM | [4] 45.9 µM | [5] > 100 µM | [6] 74.6 µM | [8] 63 µM | [9] > 100 µM | [18] > 100 µM | [10] 50.1 µM | [11] > 100 µM | [12] > 100 µM | [13] > 100 µM | [14] > 100 µM | [15] > 100 µM | [16] > 100 µM

N/N=c1\c2ccccc2c2ccc3c4ccccc4/c(=N\N)c3c12
inactive: [1] > 100 µM | [2] > 100 µM | [17] > 100 µM | [4] > 100 µM | [5] > 100 µM | [6] > 100 µM | [7] > 100 µM | [9] > 100 µM | [10] > 100 µM | [11] > 100 µM | [12] > 100 µM | [13] > 100 µM | [14] > 100 µM | [15] > 100 µM | [16] > 100 µM
